This is an account of results in patent US20240252506A1 (Hoffmann-La Roche Inc., priority 2021, published 2024).

Converted amounts (≈) assume the structure as drawn. Counter-ions that a name gives are not always drawn. A value given as a limit tells only on which side of the number the result lay.

One may read the MIC as the lowest concentration that inhibits growth of the organism.

The test system of one experiment is Escherichia coli ATCC 25922. The experiment can be described thus: Minimal Inhibitory Concentration (MIC) determination, broth microdilution (CLSI M07-A10). The experiment is classed as cell-based. The following applies: Escherichia coli, ATCC25922, strain Escherichia coli ATCC 25922, 18-24 hours at 35±2° C., lowest concentration for complete growth inhibition (no visible growth), read-out: Escherichia coli growth inhibition MIC. In a few lines:
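MIC read visually as the lowest concentration with complete growth inhibition after 18-24 h at 35±2° C, ambient air. Method follows CLSI M07-A10 broth microdilution, two-fold compound series, inoculum standardized to 0.5 McFarland then diluted 1:200.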
On the technique in general: In broth dilution the organism is exposed to a series of concentrations in liquid medium.
As for `CN(C)CC(=O)N(C)CCn1nnc2c(F)c3c(c(F)c21)CC(CN1CCC2(CC1)CN(c1cnc4c(n1)NC(=O)CO4)C(=O)O2)C3` (single isomer, unassigned) [Example 152, N-[2-[4,8-difluoro-6-[[2-oxo-3-(3-oxo-4H-pyrazino[2,3-b][1,4]oxazin-6-yl)-1-oxa-3,8-diazaspiro[4.5]decan-8-yl]methyl]-6,7-dihydro-5H-cyclopenta[f]benzotriazol-1-yl]ethyl]-2-(dimethylamino)-N-methyl-acetamide], the minimal inhibitory concentration (MIC) came out at 2 µg/mL (≈ 3.05 µM). As to `CC(=O)N(C)CCn1nnc2c(F)c3c(c(F)c21)CC(CN1CCC2(CC1)CN(c1cnc4c(n1)NC(=O)CO4)C(=O)O2)C3` (single isomer, unassigned) [Example 156, N-[2-[4,8-difluoro-6-[[2-oxo-3-(3-oxo-4H-pyrazino[2,3-b][1,4]oxazin-6-yl)-1-oxa-3,8-diazaspiro[4.5]decan-8-yl]methyl]-6,7-dihydro-5H-cyclopenta[f]benzotriazol-1-yl]ethyl]-N-methyl-acetamide], the MIC is 8 µg/mL (≈ 13.1 µM). For `CN(CCn1nnc2c(F)c3c(c(F)c21)CC(CN1CCC2(CC1)CN(c1cnc4c(n1)NC(=O)CO4)C(=O)O2)C3)C(=O)CN` (single isomer, unassigned) [Example 166, 2-Amino-N-methyl-N-[2-[4,8-difluoro-6-[[2-oxo-3-(3-oxo-4H-pyrazino[2,3-b][1,4]oxazin-6-yl)-1-oxa-3,8-diazaspiro[4.5]decan-8-yl]methyl]-6,7-dihydro-5H-cyclopenta[f]benzotriazol-1-yl]ethyl]acetamide], the minimum inhibitory concentration (MIC) came out at 1 µg/mL (≈ 1.6 µM). Same read-out and setting: to `Cc1nc2c(F)c3c(c(F)c2[nH]1)CC(CNCCC1CN(c2cnc4c(n2)NC(=O)CO4)C(=O)O1)C3` (centres unmarked) [Example 1, 6-[5-[2-[(4,8-Difluoro-2-methyl-3,5,6,7-tetrahydrocyclopenta[f]benzimidazol-6-yl)methylamino]ethyl]-2-oxo-oxazolidin-3-yl]-4H-pyrazino[2,3-b][1,4]oxazin-3-one] belongs 0.5 µg/mL (≈ 1 µM); to `CN(C)Cc1nc2c(F)c3c(c(F)c2[nH]1)CC(CNCCC1CN(c2cnc4c(n2)NC(=O)CO4)C(=O)O1)C3` (centres unmarked) [Example 2, 6-[5-[2-[[2-[(dimethylamino)methyl]-4,8-difluoro-3,5,6,7-tetrahydrocyclopenta[f]benzimidazol-6-yl]methylamino]ethyl]-2-oxo-oxazolidin-3-yl]-4H-pyrazino[2,3-b][1,4]oxazin-3-one], 0.5 µg/mL (≈ 0.922 µM).

As for `CN(C)Cc1nc2c(F)c3c(c(F)c2[nH]1)CC(CN1CCC2(CC1)CN(c1cnc4c(n1)NC(=O)CO4)C(=O)O2)C3` [Example 3, 6-[8-[[2-[(dimethylamino)methyl]-4,8-difluoro-3,5,6,7-tetrahydrocyclopenta[f]benzimidazol-6-yl]methyl]-2-oxo-1-oxa-3,8-diazaspiro[4.5]decan-3-yl]-4H-pyrazino[2,3-b][1,4]oxazin-3-one], the MIC was 0.25 µg/mL (≈ 0.44 µM).

Consider `CC(C)(O)c1nc2c(F)c3c(c(F)c2[nH]1)CC(CN1CCC2(CC1)CN(c1cnc4c(n1)NC(=O)CO4)C(=O)O2)C3` [Example 4, 6-[8-[[4,8-difluoro-2-(1-hydroxy-1-methyl-ethyl)-3,5,6,7-tetrahydrocyclopenta[f]benzimidazol-6-yl]methyl]-2-oxo-1-oxa-3,8-diazaspiro[4.5]decan-3-yl]-4H-pyrazino[2,3-b][1,4]oxazin-3-one], for which the MIC stood at 0.5 µg/mL (≈ 0.878 µM). As to `O=C1COc2ncc(N3CC4(CCN(CC5Cc6c(c(F)c7[nH]c(CN8CCS(=O)(=O)CC8)nc7c6F)C5)CC4)OC3=O)nc2N1` [Example 5, 6-[8-[[2-[(1,1-dioxo-1,4-thiazinan-4-yl)methyl]-4,8-difluoro-3,5,6,7-tetrahydrocyclopenta[f]benzimidazol-6-yl]methyl]-2-oxo-1-oxa-3,8-diazaspiro[4.5]decan-3-yl]-4H-pyrazino[2,3-b][1,4]oxazin-3-one], the MIC came to 2 µg/mL (≈ 3.04 µM). On the same count and under the same terms, under `CN1CCOC(c2nc3c(F)c4c(c(F)c3[nH]2)CC(CN2CCC3(CC2)CN(c2cnc5c(n2)NC(=O)CO5)C(=O)O3)C4)C1` (centres unmarked) [Example 6, 6-[8-[[4,8-difluoro-2-(4-methylmorpholin-2-yl)-3,5,6,7-tetrahydrocyclopenta[f]benzimidazol-6-yl]methyl]-2-oxo-1-oxa-3,8-diazaspiro[4.5]decan-3-yl]-4H-pyrazino[2,3-b][1,4]oxazin-3-one] stands 1 µg/mL (≈ 1.64 µM); under `CN(C)CCc1nc2c(F)c3c(c(F)c2[nH]1)CC(CN1CCC2(CC1)CN(c1cnc4c(n1)NC(=O)CO4)C(=O)O2)C3` [Example 7, 6-[8-[[2-[2-(dimethylamino)ethyl]-4,8-difluoro-3,5,6,7-tetrahydrocyclopenta[f]benzimidazol-6-yl]methyl]-2-oxo-1-oxa-3,8-diazaspiro[4.5]decan-3-yl]-4H-pyrazino[2,3-b][1,4]oxazin-3-one], 0.125 µg/mL (≈ 0.215 µM). Consider `O=C1COc2ncc(N3CC4(CCN(CC5Cc6c(c(F)c7[nH]c(CN8CCOCC8)nc7c6F)C5)CC4)OC3=O)nc2N1` [Example 8, 6-[8-[[4,8-difluoro-2-(morpholinomethyl)-3,5,6,7-tetrahydrocyclopenta[f]benzimidazol-6-yl]methyl]-2-oxo-1-oxa-3,8-diazaspiro[4.5]decan-3-yl]-4H-pyrazino[2,3-b][1,4]oxazin-3-one], for which the MIC amounted to 1 µg/mL (≈ 1.64 µM).

For `CNCc1nc2c(F)c3c(c(F)c2[nH]1)CC(CN1CCC2(CC1)CN(c1cnc4c(n1)NC(=O)CO4)C(=O)O2)C3` [Example 9, 6-[8-[[4,8-Difluoro-2-(methylaminomethyl)-3,5,6,7-tetrahydrocyclopenta[f]benzimidazol-6-yl]methyl]-2-oxo-1-oxa-3,8-diazaspiro[4.5]decan-3-yl]-4H-pyrazino[2,3-b][1,4]oxazin-3-one], the MIC was determined as 0.125 µg/mL (≈ 0.225 µM). Regarding `NCc1nc2c(F)c3c(c(F)c2[nH]1)CC(CN1CCC2(CC1)CN(c1cnc4c(n1)NC(=O)CO4)C(=O)O2)C3.O=C(O)C(F)(F)F` [Example 10, 6-[8-[[2-(aminomethyl)-4,8-difluoro-3,5,6,7-tetrahydrocyclopenta[f]benzimidazol-6-yl]methyl]-2-oxo-1-oxa-3,8-diazaspiro[4.5]decan-3-yl]-4H-pyrazino[2,3-b][1,4]oxazin-3-one; 2,2,2-trifluoroacetic acid], the MIC was determined as 0.125 µg/mL. As to `O=C(O)C(F)(F)F.O=C1COc2ncc(N3CC4(CCN(CC5Cc6c(c(F)c7[nH]c([C@@H]8CCCN8)nc7c6F)C5)CC4)OC3=O)nc2N1` [Example 11, 6-[8-[[4,8-difluoro-2-[(2S)-pyrrolidin-2-yl]-3,5,6,7-tetrahydrocyclopenta[f]benzimidazol-6-yl]methyl]-2-oxo-1-oxa-3,8-diazaspiro[4.5]decan-3-yl]-4H-pyrazino[2,3-b][1,4]oxazin-3-one; 2,2,2-trifluoroacetic acid], the MIC was 0.125 µg/mL. As to `CNCc1nc2c(F)c3c(cc2[nH]1)CC(CN1CCC2(CC1)CN(c1cnc4c(n1)NC(=O)CO4)C(=O)O2)C3.O=C(O)C(F)(F)F` (centres unmarked) [Example 12, 6-[8-[[8-fluoro-2-(methylaminomethyl)-1,5,6,7-tetrahydrocyclopenta[f]benzimidazol-6-yl]methyl]-2-oxo-1-oxa-3,8-diazaspiro[4.5]decan-3-yl]-4H-pyrazino[2,3-b][1,4]oxazin-3-one; 2,2,2-trifluoroacetic acid], the MIC turned out to be 0.125 µg/mL.

The experiment is the same for the next values; noted with them: strain Escherichia coli ATCC 25922, 18-24 hours at 35±2° C., lowest concentration for complete growth inhibition (no visible growth).
With `CN(C)CC(=O)N(C)CCn1nnc2c(F)c3c(c(F)c21)CC(CN1CCC2(CC1)CN(c1cnc4c(n1)NC(=O)CO4)C(=O)O2)C3` (single isomer, unassigned) [Example 153, N-[2-[4,8-difluoro-6-[[2-oxo-3-(3-oxo-4H-pyrazino[2,3-b][1,4]oxazin-6-yl)-1-oxa-3,8-diazaspiro[4.5]decan-8-yl]methyl]-6,7-dihydro-5H-cyclopenta[f]benzotriazol-1-yl]ethyl]-2-(dimethylamino)-N-methyl-acetamide], the “Escherichia coli growth inhibition MIC” value stood at 2 µg/mL. `CC(=O)N(C)CCn1nnc2c(F)c3c(c(F)c21)CC(CN1CCC2(CC1)CN(c1cnc4c(n1)NC(=O)CO4)C(=O)O2)C3` (single isomer, unassigned) [Example 157, N-[2-[4,8-difluoro-6-[[2-oxo-3-(3-oxo-4H-pyrazino[2,3-b][1,4]oxazin-6-yl)-1-oxa-3,8-diazaspiro[4.5]decan-8-yl]methyl]-6,7-dihydro-5H-cyclopenta[f]benzotriazol-1-yl]ethyl]-N-methyl-acetamide]: the “Escherichia coli growth inhibition MIC” value amounted to 4 µg/mL. Turning to `CN(CCn1nnc2c(F)c3c(c(F)c21)CC(CN1CCC2(CC1)CN(c1cnc4c(n1)NC(=O)CO4)C(=O)O2)C3)C(=O)CN` (single isomer, unassigned) [Example 167, 2-Amino-N-methyl-N-[2-[4,8-difluoro-6-[[2-oxo-3-(3-oxo-4H-pyrazino[2,3-b][1,4]oxazin-6-yl)-1-oxa-3,8-diazaspiro[4.5]decan-8-yl]methyl]-6,7-dihydro-5H-cyclopenta[f]benzotriazol-1-yl]ethyl]acetamide], the “Escherichia coli growth inhibition MIC” value was 1 µg/mL.

The same experiment, now with this note: strain Escherichia coli ATCC 25922, 18-24 hours at 35±2° C., lowest concentration for complete growth inhibition (no visible growth), dihydrochloride.
In the case of `NCCn1nc2cc(F)c3c(c2n1)CC(CN1CCC2(CC1)CN(c1ccc4c(n1)NC(=O)CO4)C(=O)O2)C3` (single isomer, unassigned) [Example 170, 6-[2-Oxo-8-[[2-(2-aminoethyl)-5-fluoro-7,8-dihydro-6H-cyclopenta[e]benzotriazol-7-yl]methyl]-1-oxa-3,8-diazaspiro[4.5]decan-3-yl]-4H-pyrido[3,2-b][1,4]oxazin-3-one dihydrochloride], the “Escherichia coli growth inhibition MIC” value was 0.25 µg/mL. On the same count and under the same terms, under `NCCn1nc2cc(F)c3c(c2n1)CC(CN1CCC2(CC1)CN(c1ccc4c(n1)NC(=O)CO4)C(=O)O2)C3` (single isomer, unassigned) [Example 171, 6-[2-Oxo-8-[[2-(2-aminoethyl)-5-fluoro-7,8-dihydro-6H-cyclopenta[e]benzotriazol-7-yl]methyl]-1-oxa-3,8-diazaspiro[4.5]decan-3-yl]-4H-pyrido[3,2-b][1,4]oxazin-3-one dihydrochloride] stands not above 0.06 µg/mL.
